This note sets out measurements from US20120165319A1, “INHIBITORS OF INTERLEUKIN-1 BETA CONVERTING ENZYME” (VERTEX PHARMACEUTICALS INCORPORATED, priority 1995, published 2012).

Like-named read-outs stand apart in the source and are kept apart here.

Assay [1] has as its system IL-1β production, LPS-challenged mice. Nature of the assay: In vivo acute assay for efficacy as anti-inflammatory agent: LPS-induced IL-1β production in mice. On the set-up: species or system mouse. Particulars: for percent inhibition of IL-1β production / inhibition at 50 mg/kg: LPS challenged mice, compound PO, 50 mg/kg; for inhibition at 50 mg/kg: Mus musculus, po, read-out: percent inhibition of IL-1β production; for Inhibition (%) of IL-1β production in LPS-challenged mice: oral, dosed at time of LPS challenge. On the procedure:
In Vivo Acute Assay for Efficacy as Anti-Inflammatory Agent
LPS-Induced IL-1β Production.
Efficacy of 214e and 217e was evaluated in CD1 mice (n=6 per condition) challenged with LPS (20 mg/kg IP). […] Blood was collected seven hours after LPS challenge. Serum IL-1β levels were measure by ELISA. […] Similar results were obtained in a second experiment. […] However, a clear dose response was not apparent.
Compounds 214e and 217e (50 mg/kg) were also administered by oral gavage to assess absorption.
The efficacy of analogs of 214e were also evaluated in LPS challenged mice after IP administration (FIG. 9) and PO administration (FIG. 10).
[…] The protocol is described in Example 7.

The test system of a further assay is IL-1β, human whole blood. Nature of the assay: Whole blood assay for IL-1β production. The class given is cell-based. Particulars: Table 17, read-out: Whole human blood IC50. The procedure, abridged:
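Human whole blood collected on Na2EDTA was treated with serially diluted compound in saline and then stimulated with LPS at 5.0 ng/ml final, for 16-18 h at 30 °C, in duplicate or triplicate. Plasma IL-1β was measured by ELISA at 1:200 dilution.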

In another assay the target is T1, ICE (Homo sapiens, UniProt P29466).
T1 sequence (P29466 120-297 limits assumed): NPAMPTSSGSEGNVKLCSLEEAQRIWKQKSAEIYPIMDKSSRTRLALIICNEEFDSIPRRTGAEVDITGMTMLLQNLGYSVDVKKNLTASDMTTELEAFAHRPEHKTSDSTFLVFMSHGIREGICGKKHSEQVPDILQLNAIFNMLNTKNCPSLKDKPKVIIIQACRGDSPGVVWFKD
T1 sequence (P29466 317-404 limits assumed): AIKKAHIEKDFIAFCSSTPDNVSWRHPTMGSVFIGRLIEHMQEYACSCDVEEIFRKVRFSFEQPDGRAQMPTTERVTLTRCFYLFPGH
Nature of the assay: Enzyme assay with UV-visible substrate (visible ICE assay, Succinyl-Tyr-Val-Ala-Asp-pNitroanilide). In kind it is biochemical. Particulars: Table 17. The essentials: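 Colorimetric caspase-1 activity: 15 min enzyme-inhibitor preincubation (RT), then Suc-Tyr-Val-Ala-Asp-pNA; 405-603 nm kinetics, 20 min, 37° C. Ki from rate fitting.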

In assay [2] the test system is IL-1β, human peripheral blood mononuclear cells (PBMC). Nature of the assay: PBMC cell assay: IL-1β assay with human PBMC or enriched adherent mononuclear cells, LPS-stimulated. The class given is cell-based. Particulars: Homo sapiens, PBMC, Table 17. The procedure, abridged:
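Buffy-coat human PBMC at 6×10^6 cells/ml, or adherent monocytes enriched by 1 h adherence (2.5−3.0×10^5 cells/well), are given 5–6 compound dilutions bracketing the ICE Ki (final DMSO 0.1%) plus LPS at a final 5 ng/ml. They are incubated 16–18 hr at 37 °C, 5% CO2, and supernatant mature IL-1β is measured by ELISA, with duplicate cultures and duplicate ELISAs.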

Where [3] appears, read: administered 0 h relative to time of LPS challenge.
The mark [4] stands for this setting: administered −2 h relative to time of LPS challenge.
Setting [5] is: 0 h, administered 0 h relative to time of LPS challenge.
The mark [6] stands for this setting: 2 h, administered −2 h relative to time of LPS challenge.

For the compound `CC(=O)N1C[C@H](NC(=O)c2cc(Cl)c(O)c(Cl)c2)C(=O)N(CC(=O)N[C@H]2CC(=O)OC2OCc2ccccc2)c2ccccc21` (mixture of isomers) [Compound 655, (3S)-2-Oxo-3-(3,5-dichloro-4-hydroxybenzoyl)amino-5-acetyl-N-[(2RS,3S)-benzyloxy-5-oxo-tetrahydrofuran-3-yl]-2,3,4,5-tetrahydro-1H-1,5-benzodiazepine-1-acetamide], the “percent inhibition of IL-1β production” value in assay [1] (setting [3]) came to 68%; in assay [1] (setting [4]), 0%.

For `CC(=O)Nc1ccc(C(=O)N[C@H]2CCC(=O)N3CCC[C@@H](C(=O)N[C@H]4CC(=O)OC4OCc4ccccc4)N3C2=O)cc1Cl` (stereo partly drawn) [Compound 213l, [1S,9S(2RS,3S)]9-[(3-Chloro-4-acetamidobenzoyl)amino]-6,10-dioxo-1,2,3,4,7,8,9,10-octahydro-N-(2-Benzyloxy-5-oxotetrahydrofuran-3-yl)-6H -pyridazino[1,2-a][1,2]diazepine-1-carboxamide], the IC50 with IL-1β, human whole blood (Homo sapiens) turned out to be 2000 nM. Also, the results for the inhibition at 50 mg/kg in assay [1] (setting [5]) and in assay [1] (setting [6]) were 80% and -18%, respectively.

`CCOC1OC(=O)C[C@@H]1NC(=O)[C@@H]1CCCN2C(=O)CC[C@H](NC(=O)c3cc(Cl)c(OC)c(Cl)c3)C(=O)N12` (stereo partly drawn) [Compound 550m, [1S,9S(2RS,3S)]9-[(3,5-Dichloro-4-methoxybenzoyl)amino]-6,10-dioxo-1,2,3,4,7,8,9,10-octahydro-N-(2-ethoxy-5-oxotetrahydrofuran-3-yl)-6H-pyridazino[1,2-a][1,2]diazepine-1-carboxamide]: the 50% inhibitory concentration (IC50) in the assay on IL-1β, human whole blood (Homo sapiens) turned out to be 2000 nM. The figures for the inhibition at 50 mg/kg in assay [1] (setting [5]) and in assay [1] (setting [6]) were 52% and 45%, respectively.

Take `CCOC1OC(=O)C[C@@H]1NC(=O)[C@@H]1CCCN2C(=O)CC[C@H](NC(=O)c3ccc(N)c(Cl)c3)C(=O)N12` (stereo partly drawn) [Compound 550h, [1S,9S(2RS,3S)]9-[(3-Chloro-4-aminobenzoyl)amino]-6,10-dioxo-1,2,3,4,7,8,9,10-octahydro-N-(2-ethoxy-5-oxotetrahydrofuran-3-yl)-6H-pyridazino[1,2-a][1,2]diazepine-1-carboxamide]: in the assay on IL-1β, human whole blood (Homo sapiens), the IC50 stood at 1800 nM. In addition, the inhibition at 50 mg/kg is 73% in assay [1] (setting [5]) and 55% in assay [1] (setting [6]).

Turning to `COc1ccc(C(=O)N[C@H]2CCC(=O)N3CCC[C@@H](C(=O)N[C@H]4CC(=O)OC4OCc4ccccc4)N3C2=O)cc1` (mixture of isomers) [Compound 213i, [1S,9S(2RS,3S)]9-[(4-Methoxybenzoyl)amino]-6,10-dioxo-1,2,3,4,7,8,9,10-octahydro-N-(2-Benzyloxy-5-oxotetrahydrofuran-3-yl)-6H-pyridazino[1,2-a][1,2]diazepine-1-carboxamide], in the assay with IL-1β, human whole blood, the IC50 stood at 1100 nM. Moreover, the “percent inhibition of IL-1β production” value was 62% in assay [1] (setting [3]) and “(−11) %” in assay [1] (setting [4]).

Consider `CCOC1OC(=O)C[C@@H]1NC(=O)[C@@H]1CCCN2C(=O)CC[C@H](NC(=O)c3ccc(O)cc3)C(=O)N12` (stereo partly drawn) [Compound 550p, [1S,9S(2RS,3S)]6,10-Dioxo-N-(2-ethoxy-5-oxotetrahydrofuran-3-yl)-9-(4-hydroxybenzoyl)amino-1,2,3,4,7,8,9,10-octahydro-6H-pyridazino[1,2-a][1,2]diazepine-1-carboxamide], for which the IC50 in the assay on IL-1β, human whole blood (Homo sapiens) was 2900 nM. Further, the inhibition at 50 mg/kg in assay [1] (setting [5]) was found to be 60%; in assay [1] (setting [6]), 30%.

Regarding `CCOC1OC(=O)C[C@@H]1NC(=O)[C@@H]1CCCN2C(=O)CCN(NC(=O)c3ccc4c(c3)OCO4)C(=O)N12` (stereo partly drawn) [Compound 528, [4S(2RS,3S)]6,10-Dioxo-N-(2-ethoxy-5-oxotetrahydrofuran-3-yl)-7-(3,4-methylenedioxybenzoylamino)-1,2,3,4,7,8,9,10-octahydro-6H-pyridazino[1,2-a][1,2,4]triazepine-4-carboxamide], the IC50 in the assay with IL-1β, human whole blood (Homo sapiens) was 2200 nM. The inhibition at 50 mg/kg stood at 67% in assay [1] (setting [5]) and 25% in assay [1] (setting [6]).

Consider `CCOC1OC(=O)C[C@@H]1NC(=O)[C@@H]1CCCN2C(=O)CC[C@H](NC(=O)c3cc(Cl)c(O)c(Cl)c3)C(=O)N12` (stereo partly drawn) [Compound 550k, [1S,9S(2RS,3S)]9-[(3,5-Dichloro-4-hydroxybenzoyl)amino]-6,10-dioxo-1,2,3,4,7,8,9,10-octahydro-N-(2-ethoxy-5-oxotetrahydrofuran-3-yl)-6H-pyridazino[1,2-a][1,2]diazepine-1-carboxamide], for which the IC50 with IL-1β, human whole blood (Homo sapiens) was found to be 3000 nM. In addition, the inhibition at 50 mg/kg in assay [1] (setting [5]) was 34%; in assay [1] (setting [6]), 36%.

As to `CC(=O)OC1OC(=O)CC1NC(=O)[C@@H]1CCCN2C(=O)CC[C@H](NC(=O)c3ccccc3)C(=O)N12` (mixture of isomers) [Compound 2100h, [1S,9S(2RS,3RS)]9-Benzoylamino-6,10-dioxo-1,2,3,4,7,8,9,10-octahydro-N-(2-acetoxy-5-oxotetrahydrofuran-3-yl)-6H-pyridazino[1,2-a][1,2]diazepine-1-carboxamide], the IC50 in the assay with IL-1β, human whole blood (Homo sapiens) amounted to 2000 nM. Besides, the inhibition at 50 mg/kg worked out at 32% in assay [1] (setting [5]) and 34% in assay [1] (setting [6]).

Turning to `O=C1C[C@H](NC(=O)[C@@H]2CCCN3C(=O)CC[C@H](NC(=O)c4cc(Cl)c(O)c(Cl)c4)C(=O)N23)C(OCc2ccccc2)O1` (stereo partly drawn) [Compound 213k, [1S,9S(2RS,3S)]9-[(3,5-Dichloro-4-hydroxybenzoyl)amino]-6,10-dioxo-1,2,3,4,7,8,9,10-octahydro-N-(2-Benzyloxy-5-oxotetrahydrofuran-3-yl)-6H-pyridazino[1,2-a][1,2]diazepine-1-carboxamide], the IC50 in the assay with IL-1β, human whole blood (Homo sapiens) stood at 2000 nM. In addition, the inhibition at 50 mg/kg in assay [1] (setting [5]) came out at 68%; in assay [1] (setting [6]), 0%.

On to `CCOC(=O)C[C@@H](C=O)NC(=O)[C@@H]1CCCN2C(=O)CC[C@H](NC(=O)c3ccccc3)C(=O)N12` [Compound 2100i, [3S(1S,9S)]3-(9-Benzoylamino-6,10-dioxo-1,2,3,4,7,8,9,10-octahydro-6H-pyridazino[1,2-a][1,2]diazepine-1-carboxamido)-4-oxobutanoic acid ethyl ester], for which the inhibition at 50 mg/kg in assay [1] (setting [5]) is 74%; in assay [1] (setting [6]), 19%.

Regarding `O=C1C[C@H](NC(=O)[C@@H]2CCCN3C(=O)CC[C@H](NC(=O)c4ccccc4)C(=O)N23)[C@H](OC2Cc3ccccc3C2)O1` [Compound 2100m, [1S,9S (2R,3S)]9-Benzamido-6,10-dioxo-N-[2-(2-indanyloxy)-5-oxo-tetrahydrofuran-3-yl]-1,2,3,4,7,8,9,10-octahydro-6H-pyridazino[1,2-a][1,2]diazepine-1-carboxamide], the inhibition at 50 mg/kg in assay [1] (setting [5]) was 42%; in assay [1] (setting [6]), 40%.

Regarding `O=C(CN1C(=O)[C@@H](NC(=O)c2ccccc2)CN(C(=O)CO)c2ccccc21)N[C@H]1CC(=O)OC1OCc1ccccc1` (mixture of isomers) [Compound 695a, (3S)-2-Oxo-3-benzoylamino-5-hydroxyacetyl-N-[(2RS,3S)-benzyloxy-5-oxo-tetrahydrofuran-3-yl]-2,3,4,5-tetrahydro-1H-1,5-benzodiazepine-1-acetamide], the figures for the inhibition at 50 mg/kg in assay [1] (setting [5]) and in assay [1] (setting [6]) were 78% and 49%, respectively.

As for `CCO[C@H]1OC(=O)C[C@@H]1NC(=O)[C@@H]1CCCN2C(=O)CC[C@H](NC(=O)c3nccc4ccccc34)C(=O)N12` [Compound 412e, [1S,9S(2S,3S)]N-(2-Ethoxy-5-oxotetrahydrofuran-3-yl)-6,10-dioxo-9-(isoquinolin-1-oylamino)-1,2,3,4,7,8,9,10-octahydro-6-H-pyridazino[1,2-a][1,2]diazepine-1-carboxamide], the “Inhibition (%) of IL-1β production in LPS-challenged mice” value was 5% in assay [1] (10 mg/kg dose), 17% in assay [1] (25 mg/kg dose) and 61% in assay [1] (50 mg/kg dose).

At ICE, `COc1cccc(OC)c1C(=O)C(=O)NN1CCC(=O)N2CCC[C@@H](C(=O)N[C@H](C=O)CC(=O)O)N2C1=O` [Compound 1112] yielded a Ki of 3.5 nM. In addition, the IC50 was found to be 1800 nM in assay [2] and 2300 nM in the assay with IL-1β, human whole blood (Homo sapiens).

For orientation: IC50 means the point on the concentration scale where inhibition reaches its midpoint. As a reminder, the inhibition is the change of the read-out against control, counted positive when it falls. In general, Ki refers to the dissociation constant of the complex between target and ligand, obtained from inhibition or displacement.
